Experimental data published in US5227153A, “Use of 4-(2-oxo-3-bornylidenemethyl)benzenesulfphonic acid or its salts for the protection of hair against environmental attacking agents, and in particular against light, and process for the protection of hair using this compound” (L'Oreal, priority 1988, dated 1993).

Tests used:
[1] = 15% wet extension level of bleached hair after exposure to light (SUNTEST HANAU xenon apparatus)
Experimental: (§1) The 15% extension level is the weight to be applied to wet hair of given length to extend it by 15%. The higher the weight, the stronger and more elastic the hair.
This composition is applied to bleached hair, then rinsed. The hair is then exposed to the Suntest by means of a "SUNTEST HANAU" apparatus for 120 hours. This apparatus consists of a xenon light emitter and a system of filters producing a radiation corresponding to a very large extend to solar radiation. The energy radiation is about 585 W/m^2 in the wavelength range between 300 and 830 nm (overall radiation).
After applying this foam to bleached hair three times and without consecutive rinsing, the hair is exposed to the Suntest as described in Example 1 for 180 hours.
Bleached hair treated with one application of this spray and not rinsed is then exposed to the Suntest under the conditions described in Example 1 for 120 hours.
Bleached hair treated with one application of this gel and not rinsed is then exposed to the Suntest under the conditions described in Example 1 for 120 hours.

[2] = Mechanical properties of hair after exposure in natural light and artificial xenon light; conditions: natural light (sunny environment) and artificial light (xenon, SUNTEST HANAU)
Description: as §1
It has been possible to reveal this property by exposure in natural light (sunny environment) and artificial light (xenon light emitter in a SUNTEST HANAU type accelerated aging apparatus).

CC12CCC(C(=Cc3ccc(S(=O)(=O)O)cc3)C1=O)C2(C)C (centres unmarked) [4-(2-oxo-3-bornylidenemethyl)benzenesulphonic acid]
improvement in the mean value of the 15% wet extension level ([1]; rinse composition with 5 g per 100 g of the acid, rinsed, Suntest 120 hours, compared to same rinse containing no acid): very significantly improved | improvement in the mean value of the 15% wet extension level ([1]; styling foam with 1.5 g per 100 g of the acid (90 g composition + 10 g propellant), applied three times, not rinsed, Suntest 180 hours, compared to same foam containing no acid): appreciable improvement | improvement in the mean value of the 15% wet extension level ([1]; styling gel with 0.4 g per 100 g of the acid, one application, not rinsed, Suntest 120 hours, compared to same gel without the acid): appreciable improvement | improvement in the mean value of the 15% wet extension level ([1]; styling spray with 1 g per 100 g of the acid, one application, not rinsed, Suntest 120 hours, compared to same spray containing no acid): significant improvement | preservation of the mechanical properties of hair from degradation by light [2]: can preserve the mechanical properties of hair
